The test system of one assay is HCT116 cells. The assay can be described thus: Proliferation / cell survival assay (CellTiterGlo, 72 hour). Type of assay: cell-based. The note with it: Homo sapiens, HCT-116; HCT116, K-Ras mutation; average of two experiments; read-out: IC50, in vitro cell survival / proliferation. The method, then: (§1) In vitro studies of variety of tumor cells lines with prevalent mutations in RAS/RAF genes were performed for anti-proliferative activity (functional assay). This was compared with wild type cell line for selectivity. MEK kinase assay was performed in the presence and in the absence of ATP to define its allosteric inhibitory mode of action; Effect on ERK phosphorylation was studied to establish its cellular mechanism of action.
(§2) Colo205, Caki-1, HepG2, HCT116 and HT29 cells were obtained from American Type Culture Collection. Colo205, Caki-1, HepG2 cells were grown in RPMI 1640 medium supplemented with L-glutamine (Invitrogen) and 10% Fetal Bovine Serum (Hyclone) at 37° C. in a humidified, 5% CO2 incubator. HCT116 and HT29 cells were grown in DMEM medium supplemented with L-glutamine (Invitrogen) and 10% Fetal Bovine Serum (Hyclone) at 37° C. in a humidified, 5% CO2 incubator.
(§3) Proliferation assay was done by plating 2,000 cells/well in 100 μL of DMEM/10% FBS or RPMI/10% media in a 96-well plate and incubated overnight at 37° C. in a humidified, 5% CO2 incubator. Media was replaced with fresh 100 μL of fresh RPMI/10% FBS media or DMEM/10% FBS media containing various concentrations of the compounds. Compounds were added at 3-fold dilutions, concentrations ranging from 3.3 μM to 4.5 nM. After 72 hour incubation with the compounds at 37° C. in a humidified, 5% CO2 incubator, cell viability was measured in a luminometer after the addition of 100 μL/well CellTiterGlo reagent (Promega). IC50s were calculated using SoftMax software.
A general note: ATP-based viability assays read luminescence as a measure of living cells.

The test system of a further assay is HepG2 cells. The description is as above. Type of assay: cell-based. The note with it: Homo sapiens; HepG2, N-Ras mutation; average of two experiments; read-out: IC50, in vitro cell survival / proliferation. The method, then:
as §1, §2, §3

The next assay relates to HT29 cells. The assay is described as above. It counts as cell-based. The method, then: as §1, §2, §3
The subject of another assay is Caki-1 cells. The assay is described as above. It counts as cell-based. The note with it: Homo sapiens; Caki (Caki-1), WT; average of two experiments; read-out: IC50, in vitro cell survival / proliferation. The method, then: as §1, §2, §3
In the next assay the test system is Colo205 cells. The description is as above. Type of assay: cell-based. The settings on record: Homo sapiens, COLO 205; Colo205, BRAF mutation; average of two experiments; read-out: IC50, in vitro cell survival / proliferation. The method, then:
as §1, §2, §3

Assay [1] concerns the target T1, recombinant full-length human GST-MEK1 (Homo sapiens, UniProt Q02750).
T1 construct: Purified recombinant full-length human GST-MEK1; GST; purchased Cell Signaling Technology, Inc (Beverly, Mass., USA)
The assay can be described thus: MEK Enzyme Inhibitory Assay (ADP-Glo). It counts as biochemical. The method, then:
Materials and preparation of reagents: Purified recombinant full-length human GST-MEK1 was purchased from Cell Signaling Technology, Inc (Beverly, Mass., USA). MAP kinase substrate Erk1/Erk2 peptide was purchased from Enzo Life Sciences (Plymouth Meeting, Pa., USA).
Determination of enzymatic activity: Compounds were diluted three-fold in dimethylsulfoxide (DMSO) ranging from 1 mM to 1.37 μM concentration. A typical 20-microliter assay contained 80 ng MEK1, 4 μg Erk1/Erk2 peptide, 100 μM or 1 mM ATP, 1 μM to 1.37 nM test compound in 1× assay buffer containing 5 mM MOPS, pH 7.2, 2.5 mM β-glycerophosphate, 1 mM EGTA, 0.4 mM EDTA, 5 mM MgCl2, 0.05 mM DTT. Enzyme reaction was incubated at room temperature for 90 minutes. At the end of kinase reaction, 20 μL of ADP-Glo reagent (Promega, Madison, Wis., USA) was added and incubated at room temperature for 40 minutes. Forty μL of kinase detection reagent (Promega) was added and incubated at room temperature for 1 h. Chemiluminescence was read and IC50s calculated using SoftMax software.

[2] abbreviates: Homo sapiens, HT-29, HT29, BRAF mutation, average of two experiments, read-out: IC50, in vitro cell survival / proliferation.
[3] abbreviates: Homo sapiens, HT-29, HT29 proliferation, class symbols, read-out: HT29 IC50.

Where two headings read alike, the source gives them in different places.

T1 sequence (Q02750 whole entry): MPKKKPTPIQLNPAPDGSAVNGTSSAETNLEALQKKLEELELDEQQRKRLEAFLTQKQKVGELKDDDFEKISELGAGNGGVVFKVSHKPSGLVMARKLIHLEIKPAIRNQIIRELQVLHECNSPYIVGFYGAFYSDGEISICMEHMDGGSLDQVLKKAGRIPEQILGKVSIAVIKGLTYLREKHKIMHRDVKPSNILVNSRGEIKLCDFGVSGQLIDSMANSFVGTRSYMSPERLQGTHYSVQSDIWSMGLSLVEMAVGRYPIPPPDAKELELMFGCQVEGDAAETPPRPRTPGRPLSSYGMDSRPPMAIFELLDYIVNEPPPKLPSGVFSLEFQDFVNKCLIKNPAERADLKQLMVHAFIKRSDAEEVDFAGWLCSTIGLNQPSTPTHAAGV

Regarding `COc1cc(F)c(F)c(Nc2ccc(I)cc2F)c1NS(=O)(=O)C1(C[C@H](O)CO)CC1` [RDEA 119, reference compound], the IC50 with HCT116 cells is 461 nM; with HepG2 cells, 17 nM; with HT29 cells (setting [2]), 20 nM; in the assay on Caki-1 cells, greater than 1000 nM; in the assay on Colo205 cells, 20 nM.

As to `O=S1(=O)Nc2c(cc(F)c(F)c2Nc2ccc(I)cc2F)OC/C=C/CC12CC2` [Example 1], the IC50 in the assay on HT29 cells (setting [3]) lay within 100 to 500 nM.

As for `O=S1(=O)Nc2c(cc(F)c(F)c2Nc2ccc(I)cc2F)OCC(O)C(O)CC12CC2` (single isomer, unassigned) [Example 8a], the IC50 with HT29 cells (HT29 proliferation, class symbols, read-out: HT29 IC50) is less than 100 nM.

As for `O=S1(=O)Nc2c(cc(F)c(F)c2Nc2ccc(I)cc2F)OCCCCC12CC2` [Example 19], the IC50 with HT29 cells (setting [3]) was greater than 500 nM.

In the case of `O=S1(=O)Nc2c(cc(F)c(F)c2Nc2ccc(I)cc2Cl)OCC(O)C(O)CC12CC2` (centres unmarked) [Example 11], the IC50 with HT29 cells (setting [3]) lay in the range of 100 to 500 nM.

Turning to `COc1cc(F)c(NS(=O)(=O)C2(CC(O)CO)CC2)c(Nc2ccc(Br)cc2F)c1F` (centres unmarked) [Example 16], in the assay with HT29 cells (setting [3]), the IC50 was greater than 500 nM.

Regarding `O=S1(=O)Nc2c(Nc3ccc(I)cc3F)cc(F)cc2OCC(O)C(O)CC12CC2` (centres unmarked) [Example 13], the IC50 with HT29 cells (setting [3]) was less than 100 nM.

As for `O=S1(=O)Nc2c(cc(F)c(F)c2Nc2ccc(I)cc2)OCC(O)C(O)CC12CC2` (centres unmarked) [Example 10], the IC50 in the assay with HT29 cells (setting [3]) lay in the range of 100 to 500 nM.

`O=S1(=O)Nc2c(cc(F)c(F)c2Nc2ccc(I)cc2F)OCC(O)C(O)CC12CC2` (racemic) [Example 8]: the IC50 in assay [1] was 21 nM; in the assay with HCT116 cells, 544 nM; in the assay on HepG2 cells, 15 nM; in the assay on HT29 cells (setting [2]), 21 nM; in the assay with HT29 cells (setting [3]), less than 100 nM; in the assay on Caki-1 cells it was greater than 1000 nM. The IC50 in the assay with Colo205 cells came to 17 nM.

For the compound `O=S1(=O)Nc2c(cc(F)c(F)c2Nc2ccc(Br)cc2F)OCC(O)C(O)CC12CC2` (centres unmarked) [Example 9], in the assay with HT29 cells (setting [3]), the IC50 is greater than 500 nM.

For `COc1cc(F)c(NS(=O)(=O)C2(CC(O)CO)CC2)c(Nc2ccc(I)cc2F)c1F` (centres unmarked) [Example 15, N-(3,6-difluoro-2-(2-fluoro-4-iodophenylamino)-4-methoxyphenyl)-1-(2,3-dihydroxypropyl)cyclopropane-1-sulfonamide], the IC50 in the assay on HT29 cells (setting [3]) fell in the range of 100 to 500 nM.

Consider `COc1cc(F)c(NS(=O)(=O)C2(CC(O)CO)CC2)c(Nc2ccc(I)cc2F)c1` (centres unmarked) [Example 17], for which the IC50 with HT29 cells (setting [3]) was less than 100 nM.

In the case of `O=S1(=O)Nc2c(cc(F)c(F)c2Nc2ccc(I)cc2F)OCC(O)C(O)CC12CC2` (single isomer, unassigned) [Example 8b], in the assay with HT29 cells (setting [3]), the IC50 lay within 100 to 500 nM.

The record behind these values is patent US9034861B2, “MEK inhibitors useful in the treatment of diseases” (Allomek Therapeutics LLC, priority 2009, dated 2015).
